Each compound was assayed against HIV integrase (Human immunodeficiency virus type 1 group M subtype B (isolate HXB2) (HIV-1), UniProt P04585) (assay: HIV integrase inhibitory activity assay (immunoplate strand transfer, OD405)). Details: not given.
Format: biochemical
Method: The HIV integrase inhibitory activity was investigated based on the following assay method.
(1) Preparation of DNA Solution
By the same method as that described in Experimental Example 1 of WO 2004/024693, a substrate DNA solution (2 pmol/μl) and a target DNA solution (5 pmol/μl) were prepared. […] Each sequence of a substrate DNA and a target DNA is as described in the same Experimental Example.
(2) Measurement of Inhibition Rate (IC50 Value)
Streptavidin (manufactured by Vector Laboratories) was dissolved in a 0.1M carbonate buffer solution (composition: […] Na2CO3, 10 mM NaHCO3) to a concentration of 40 μg/ml, Each 50 μl of this solution was added to a well of an immunoplate (manufactured by NUNC), this is allowed to stand at 4° C. overnight to adsorb. Then, each well was washed with a phosphate buffer (composition: 13.7 mM NaCl, 0.27 mM KCl, 0.43 mM Na2HPO4, 0.14 mM KH2PO4) two times, and 300 μl of a phosphate buffer containing 1% skim milk to block it for 30 minutes. Further, each well was washed with a phosphate buffer two times, 50 μl of a substrate DNA solution (2 pmol/μl) was added to adsorb at room temperature for 30 minutes while shaking, and this was washed with a phosphate buffer two times and, then, distilled water once.
Then, to each well prepared as described above were added 12 μl of a buffer (composition: 150 mM MOPS (pH7.2), 75 mM MnCl2, 50 mM 2-mercaptoethanol, 25% glycerol, 500 μg/ml bovine serum albumin-fraction V), and 51 μl of a reaction solution prepared from 39 μl of distilled water. Then, 9 μl of an integrase solution (30 pmol) was added, and the mixture was mixed well. To a well as a negative control (NC) was added 9 μl of a diluting solution (composition: 20 mM MOPS (pH7.2), 400 mM potassium glutamate, 1 mM EDTA, 0.1% NP-40, 20% glycerol, 1 mM DTT, 4 M urea), and this was mixed well using a plate mixer. […]
C abs.: absorbance of well of compound
NC abs.: absorbance of NC
PC abs.: absorbance of PC

| Compound | Integrase inhibitory activity (IC50, ng/ml) |
| --- | --- |
| O=C(NCc1ccc(F)cc1)c1cn2c(c(O)c1=O)C(=O)N1CCOC1C2 (stereo not shown) [Example C-2, 5-Hydroxy-4,6-dioxo-2,3,4,6,9,9a-hexahydro-1-oxa-8a,8a-diaza-cyclopenta[b]naphthalene-7 carboxylic acid 4-fluorobenzylamide] | 3.3 ng/mL |

Same assay, conditions: read-out: Integrase inhibitory activity (IC50, ng/ml) (converted)

| Compound | IC50 |
| --- | --- |
| CC(C)CN1CCCN2C(=O)c3c(O)c(=O)c(C(=O)NCc4ccc(F)cc4)cn3CC12 (stereo not shown) [Example F-2, 5-Hydroxy-1-isobutyl-6,10-dioxo-1,2,3,4,6,9,9a,10-octahydro-1,4a,8a-triazaanthracene-7-carboxylic acid 4-fluorobenzylamide] | 8.59 nM |
| CC(=O)N1CCCN2C(=O)c3c(O)c(=O)c(C(=O)NCc4ccc(F)cc4)cn3CC12 (stereo not shown) [Example H-2, 1-Acetyl-5-hydroxy-6,10-dioxo-1,2,3,4,6,9,9a,10-octahydro-1,4a,8a-triaza-anthracene-7-carboxylic acid 4-fluoro-benzylamide] | 7.47 nM |

The compounds below were run on VSV-g pseudotyped HIV vector that expresses luciferase (PHIV) (assay: microbe, parasite or virus in culture). Details: Human immunodeficiency virus 1, HEK-293T, 48 h, read-out: PHIV IC50.
Format: cell-based

| Compound | IC50 |
| --- | --- |
| O=C(NCc1ccc(F)cc1F)c1cn2c(c(O)c1=O)C(=O)N1[C@H](C2)N[C@H]2CCCC[C@@H]21 [Example Z-39, (6aR,7aS,11aS)—N-[(2,4-Difluorophenyl)methyl]-1-hydroxy-2,13-dioxo-2,6a,7,7a,8,9,10,11,11a,13-decahydro-6H-pyrido[1′,2′:4,5]pyrazino[1,2-a]benzimidazole-3-carboxamide] | < 10 nM |
| O=C(NCc1ccc(F)cc1F)c1cn2c(c(O)c1=O)C(=O)N1[C@@H](C2)N[C@H]2CCCC[C@@H]21 [Example Z-40, (6aS,7S,11aS)—N-[(2,4-Difluorophenyl)methyl]-1-hydroxy-2,13-dioxo-2,6a,7,7a,8,9,10,11,11a,13-decahydro-6H-pyrido[1′,2′:4,5]pyrazino[1,2-a]benzimidazole-3-carboxamide] | < 10 nM |
| O=C(NCc1ccc(F)cc1F)c1cn2c(c(O)c1=O)C(=O)N1C[C@@H]3CCCCN3[C@@H]1C2 [Example Z-41, (5aS,14aS)—N-[(2,4-Difluorophenyl)methyl]-11-hydroxy-10,12-dioxo-1,2,3,4,5a,6,10,12,14,14a-decahydropyrido[1,2-a]pyrido[1′,2′:4,5]imidazo[1,2-d]pyrazine-9-carboxamide] | < 10 nM |
| O=C(NCc1ccc(F)cc1F)c1cn2c(c(O)c1=O)C(=O)N1CC[C@H]3CCCCN3[C@H]1C2 [Example Z-42, (4aR,14aR)—N-[(2,4-Difluorophenyl)methyl]-9-hydroxy-8,10-dioxo-2,3,4,4a,5,6,8,10,14,14a-decahydro-1H-pyrido[1,2-c]pyrido[1′,2′:4,5]pyrazino[1,2-a]pyrimidine-11-carboxamide] | < 10 nM |
| CC(C)CCN1CC[C@@H](C)N2C(=O)c3c(O)c(=O)c(C(=O)NCc4ccc(F)cc4F)cn3C[C@H]12 [Example Z-43] | < 10 nM |
| CC(C)N1CC[C@H](C)N2C(=O)c3c(O)c(=O)c(C(=O)NCc4ccc(F)cc4F)cn3C[C@@H]12 [Example Z-44, (4S,12aS)—N-[(2,4-Difluorophenyl)methyl]-7-hydroxy-4-methyl-1-(1-methylethyl)-6,8-dioxo-1,2,3,4,6,8,12,12a-octahydropyrido[1′,2′:4,5]pyrazino[1,2-a]pyrimidine-9-carboxamide] | < 10 nM |
| CC(C)CCN1CC[C@H](C)N2C(=O)c3c(O)c(=O)c(C(=O)NCc4ccc(F)cc4F)cn3C[C@@H]12 [Example Z-45, (4S,12aS)—N-[(2,4-Difluorophenyl)methyl]-7-hydroxy-4-methyl-1-(3-methylbutyl)-6,8-dioxo-1,2,3,4,6,8,12,12a-octahydropyrido[1′,2′:4,5]pyrazino[1,2-a]pyrimidine-9-carboxamide] | < 10 nM |
| C[C@H]1CCN(Cc2cccnc2)[C@@H]2Cn3cc(C(=O)NCc4ccc(F)cc4F)c(=O)c(O)c3C(=O)N12 [Example Z-46, (4S,12aS)—N-[(2,4-Difluorophenyl)methyl]-7-hydroxy-4-methyl-6,8-dioxo-1-(3-pyridinylmethyl)-1,2,3,4,6,8,12,12a-octahydropyrido[1′,2′:4,5]pyrazino[1,2-a]-pyrimidine-9-carboxamide] | < 10 nM |
| C[C@H]1CCN(C2CC2)[C@@H]2Cn3cc(C(=O)NCc4ccc(F)cc4F)c(=O)c(O)c3C(=O)N12 [Example Z-47, (4S,12aS)-1-Cyclopropyl-N-[(2,4-difluorophenyl)methyl]-7-hydroxy-4-methyl-6,8-dioxo-1,2,3,4,6,8,12,12a-octahydropyrido[1′,2′:4,5]pyrazino[1,2-a]pyrimidine-9-carboxamide] | < 10 nM |
| COCCN1CC[C@H](C)N2C(=O)c3c(O)c(=O)c(C(=O)NCc4ccc(F)cc4F)cn3C[C@@H]12 [Example Z-48, (4S,12aS)—N-[(2,4-Difluorophenyl)methyl]-7-hydroxy-4-methyl-1-[2-(methyloxy)ethyl]-6,8-dioxo-1,2,3,4,6,8,12,12a-octahydropyrido[1′,2′:4,5]pyrazino[1,2-a]pyrimidine-9-carboxamide] | < 10 nM |
| CC[C@@H]1CO[C@H]2Cn3cc(C(=O)NCc4ccc(F)cc4F)c(=O)c(O)c3C(=O)N12 [Example Z-50, (3R,11aS)—N-[(2,4-Difluorophenyl)methyl]-3-ethyl-6-hydroxy-5,7-dioxo-2,3,5,7,11,11a-hexahydro[1,3]oxazolo[3,2-a]pyrido[1,2-d]pyrazine-8-carboxamide] | < 10 nM |
| C[C@H]1CCN(C2CCC2)[C@@H]2Cn3cc(C(=O)NCc4ccc(F)cc4F)c(=O)c(O)c3C(=O)N12 [Example Z-59, (4S,12aS)-1-Cyclobutyl-N-[(2,4-difluorophenyl)methyl]-7-hydroxy-4-methyl-6,8-dioxo-1,2,3,4,6,8,12,12a-octahydropyrido[1′,2′:4,5]pyrazino[1,2-a]pyrimidine-9-carboxamide] | < 10 nM |
| C[C@H]1CCN(C2CCSCC2)[C@@H]2Cn3cc(C(=O)NCc4ccc(F)cc4F)c(=O)c(O)c3C(=O)N12 [Example Z-60, (4S,12aS)—N-[(2,4-Difluorophenyl)methyl]-7-hydroxy-4-methyl-6,8-dioxo-1-(tetrahydro-2H-thiopyran-4-yl)-1,2,3,4,6,8,12,12a-octahydropyrido[1′,2′:4,5]pyrazino[1,2-a]pyrimidine-9-carboxamide] | < 10 nM |

From US11267823B2, “Substituted 1,2,3,3a,4,5,7,9,13,13a-decahydropyrido[1′,2′:4,5]pyrazino[1,2-a]pyrrolo[1,2-c]pyrimidines having HIV integrase inhibitory activity” (Shionogi & Co., Ltd., priority 2005, dated 2022)
